{"source": "patent US6127342A", "about": "“Method for preventing or treating a lung disease caused by active oxygen and free radical injury” (Teijin Limited, priority 1991, dated 2000)", "format_in_all_cases": "in vivo", "key": {"[1]": {"test_system": "liver ischemia-reperfusion model using rats", "experiment": "Serum AST, ALT and LDH after 1 hour of reperfusion", "conditions": "rat; 50 mg/kg i.v.", "experimental": "(§1) Male Wister rats weighing 250-300 g were fasted with free access to water 24 hours before the experiment. Seventy-two rats were divided into three groups of 24 animals each, i.e., the control group, the GSH administration group and the γ-GCE-administration group. Each rat was anesthetized by intraperitoneal administration of 40 mg/0.8 ml/kg of sodium pentobarbital, and the femoral vein was cannulated. In the GSH group and the γ-GCE group, 50 mg/kg of GSH or γ-GCE respectively were administered intravenously. Physiological saline was then infused for volume replacement in each group, as a continuous intravenous infusion at a rate of 0.8 ml/hr with an injection pump throughout the experiment. Thirty minutes after starting injection of physiological saline, the abdomon was opened by a midline incision and the liver hilus was exposed. According to the method described by Hasselgren, et al. in J. Surg. Res., Vol. 34, pp. 409-414, 1984, all vessels to the left and median lobes of the liver, more specifically, hepatic artery, portal vein and the bile duct, were clamped to produce an ischemic state for 2 hours. Since blood vessels to the remaining parts of the liver were not occluded by this method, poral stasis could be avoided which was of special relevance for circulation stability in rats. Thereafter, occlusion of all vessels was released by removing the clamp to allow reperfusion for 1 hour. The abdominal walls were closed during ischemia and reperfusion.\n(§2) Using 18 rats in each group, the livers of 6 animals from each group were removed before ischemia, after 2 hours of ischemia, and after 1 hour of reperfusion, respectively. A portion of the liver from each animal was rapidly frozen in liquid nitrogen and used for measurement of glutathione,adenine nucleotides and lipid peroxide. From the remaining portion of the liver, mitochondria was immediately extracted according to the method described by Hogeboom and Schneider in the J. Biol. Chem., Vol. 172, p. 619, 1948. In other experiments, immediately after starting reperfusion, blood from the hepatic vein was collected using 6 rats from each group. These blood samples were then used to measure leaked adenine nucleotides. In addition, after 1 hour of said reperfusion, blood samples were also drawn, which were then used to measure the activity of the leaked liver cell enzymes.\n(§3) Evaluation of ischemia-reperfusion injury was performed by measuring liver tissue (1) mitochondrial function, (2) glutathione concentration, (3) adenine nucleotides concentration, and (4) lipid peroxide concentration, as well as liver tissue derived (5) adenine nucleotides concentration in the hepatic vein immediately after starting reperfusion, and (6) liver cell enzyme activities in the blood after 1 hour of reperfusion. More specifically, the mitochondrial function in (1) was measured according to the method described by Chance, et al. in Adv. Enzymol., Vol. 17, p. 65, 1956. In addition, the quantitative determination of glutathione in (2) was performed using the same method as Experiment 1 on supernatant obtained by adding 10 vol/g of tissue weight of 2.5% (w/v) sulfosalicylic acid dihydrate aqueous solution to the liver tissue followed by homogenization and centrifugation. In addition, the quantitative determination of adenine nucleotides in (3) was performed by neutralizing the perchloric acid extract of the liver tissue with potassium hydroxide followed by removal of the precipitate and applying to an ion exchange HPLC column according to the method described by Sugino, et al. in J. Chromatogr., Vol. 361, pp. 427-431, 1986. In addition, the measurement of lipid peroxide in (4) was performed according to the thiobarbiturate method described by Ohkawa, et al. in Anal. Biochem., Vol. 95, p. 351, 1979. […]"}, "[2]": {"test_system": "liver ischemia-reperfusion model using rats", "experiment": "Adenine nucleotides concentration in liver tissue during liver ischemia-reperfusion", "conditions": "rat, 50 mg/kg i.v.; for effect on restoration of liver ATP following reperfusion: 1 hour reperfusion", "experimental": "as §1, §2, §3"}, "[3]": {"test_system": "cardiac muscle mitochondria", "experiment": "Cardiac muscle mitochondrial function (St. III O2, RCI) after coronary ischemia-reperfusion", "conditions": "dog; 10 mg/kg i.v. just before reperfusion; FIGS. 1A and 1B", "from_the_text": "Electrocardiogram electrodes were attached, and monitoring and recording were continued throughout the experiment. Following insertion of cannulas in the right femoral vein and right femoral artery, the cannulas were used for continuous intravenous drip of physiological saline to replenish water or administration of the test preparation, and monitoring of arterial blood pressure, respectively. After performing left thoracotomy in the fourth or fifth intercostal space, the pericardium was torn to expose the heart. Ischemia was induced by ligating the left anterior descending coronary artery immediately distal to the first diagonal branch, while reperfusion was performed by subsequently removing that ligation. The animals were divided into four groups. […] Mitochondria was obtained by removing the heart immediately after the end of ischemia or reperfusion, washing with cold physiological saline, promptly cutting out the ischemic or reperfused area and the normal area, and immediately performing preparation from the respective area according to the method described by […], et al. in Arch. Biochem. Biophys., Vol. 94, pp. 148-155, 1961. The glutathione content of the mitochondria was measured by applying the method described by Tietze in Anal. […] Evaluation of mitochondrial function was performed according to the method described by Sugiyama, et al. in Am. […]"}}, "data": [{"smiles": "CCOC(=O)[C@H](CS)NC(=O)CC[C@H](N)C(=O)O", "note": "[γ-GCE, γ-L-glutamyl-L-cysteine ethyl ester]", "values": [{"measurement": "Serum ALT after 1 hour of reperfusion", "setting": "[1]", "value": "924 ± 330", "unit": "IU/L"}, {"measurement": "Serum AST after 1 hour of reperfusion", "setting": "[1]", "value": "2071 ± 625", "unit": "IU/L"}, {"measurement": "Serum LDH after 1 hour of reperfusion", "setting": "[1]", "value": "14678 ± 2763", "unit": "IU/L"}, {"measurement": "effect on leakage of liver cell enzymes into the blood following 1 hour of reperfusion", "setting": "[1]", "value": "significantly reduced leakage of enzymes from liver cells"}, {"measurement": "effect on restoration of liver ATP following reperfusion", "setting": "[2]", "value": "significantly promoted restoration of ATP following reperfusion"}, {"measurement": "effect on the reduction of liver ATP caused by ischemia", "setting": "[2]; 2 hours ischemia", "value": "did not show any effects on the reduction of ATP caused by ischemia"}, {"measurement": "Liver tissue ADP, after 1 hour reperfusion", "setting": "[2]", "value": 0.38, "unit": "μmol/g wet liver weight"}, {"measurement": "Liver tissue AMP, after 1 hour reperfusion", "setting": "[2]", "value": 0.12, "unit": "μmol/g wet liver weight"}, {"measurement": "Liver tissue ATP + ADP + AMP, after 1 hour reperfusion", "setting": "[2]", "value": 2.21, "unit": "μmol/g wet liver weight"}, {"measurement": "Liver tissue ATP, after 1 hour reperfusion", "setting": "[2]", "value": 1.70, "unit": "μmol/g wet liver weight"}, {"measurement": "Liver tissue ADP, after 2 hours ischemia", "setting": "[2]", "value": 0.17, "unit": "μmol/g wet liver weight"}, {"measurement": "Liver tissue AMP, after 2 hours ischemia", "setting": "[2]", "value": 0.87, "unit": "μmol/g wet liver weight"}, {"measurement": "Liver tissue ATP + ADP + AMP, after 2 hours ischemia", "setting": "[2]", "value": 1.10, "unit": "μmol/g wet liver weight"}, {"measurement": "Liver tissue ATP, after 2 hours ischemia", "setting": "[2]", "value": 0.06, "unit": "μmol/g wet liver weight"}, {"measurement": "Liver tissue ADP, before ischemia", "setting": "[2]", "value": 0.57, "unit": "μmol/g wet liver weight"}, {"measurement": "Liver tissue AMP, before ischemia", "setting": "[2]", "value": 0.13, "unit": "μmol/g wet liver weight"}, {"measurement": "Liver tissue ATP + ADP + AMP, before ischemia", "setting": "[2]", "value": 3.39, "unit": "μmol/g wet liver weight"}, {"measurement": "Liver tissue ATP, before ischemia", "setting": "[2]", "value": 2.69, "unit": "μmol/g wet liver weight"}, {"measurement": "effect on reduction in cardiac muscle mitochondrial function (St. III O2, RCI) during reperfusion", "setting": "[3]", "value": "completely suppressed"}]}, {"smiles": "N[C@@H](CCC(=O)N[C@@H](CS)C(=O)NCC(=O)O)C(=O)O", "note": "[GSH, reduced glutathione, reference compound]", "values": [{"measurement": "Serum ALT after 1 hour of reperfusion", "setting": "[1]", "value": "2337 ± 571", "unit": "IU/L"}, {"measurement": "Serum AST after 1 hour of reperfusion", "setting": "[1]", "value": "3914 ± 1102", "unit": "IU/L"}, {"measurement": "Serum LDH after 1 hour of reperfusion", "setting": "[1]", "value": "26435 ± 12191", "unit": "IU/L"}, {"measurement": "effect on leakage of liver cell enzymes into the blood following 1 hour of reperfusion", "setting": "[1]", "value": "did not significantly mitigate the leakage"}, {"measurement": "effect on restoration of liver ATP following reperfusion", "setting": "[2]", "value": "did not show any promotive effects on the restoration of ATP"}, {"measurement": "Liver tissue ADP, after 1 hour reperfusion", "setting": "[2]", "value": 0.38, "unit": "μmol/g wet liver weight"}, {"measurement": "Liver tissue AMP, after 1 hour reperfusion", "setting": "[2]", "value": 0.15, "unit": "μmol/g wet liver weight"}, {"measurement": "Liver tissue ATP + ADP + AMP, after 1 hour reperfusion", "setting": "[2]", "value": 1.66, "unit": "μmol/g wet liver weight"}, {"measurement": "Liver tissue ATP, after 1 hour reperfusion", "setting": "[2]", "value": 1.13, "unit": "μmol/g wet liver weight"}, {"measurement": "Liver tissue ADP, after 2 hours ischemia", "setting": "[2]", "value": 0.13, "unit": "μmol/g wet liver weight"}, {"measurement": "Liver tissue AMP, after 2 hours ischemia", "setting": "[2]", "value": 0.73, "unit": "μmol/g wet liver weight"}, {"measurement": "Liver tissue ATP + ADP + AMP, after 2 hours ischemia", "setting": "[2]", "value": 0.90, "unit": "μmol/g wet liver weight"}, {"measurement": "Liver tissue ATP, after 2 hours ischemia", "setting": "[2]", "value": 0.04, "unit": "μmol/g wet liver weight"}, {"measurement": "Liver tissue ADP, before ischemia", "setting": "[2]", "value": 0.65, "unit": "μmol/g wet liver weight"}, {"measurement": "Liver tissue AMP, before ischemia", "setting": "[2]", "value": 0.18, "unit": "μmol/g wet liver weight"}, {"measurement": "Liver tissue ATP + ADP + AMP, before ischemia", "setting": "[2]", "value": 3.40, "unit": "μmol/g wet liver weight"}, {"measurement": "Liver tissue ATP, before ischemia", "setting": "[2]", "value": 2.57, "unit": "μmol/g wet liver weight"}, {"measurement": "effect on reduction in cardiac muscle mitochondrial function (St. III O2, RCI) during reperfusion", "setting": "[3]", "value": "no protective effects were observed whatsoever"}]}]}
